Assay results taken from BindingDB's records for doi:10.1021/bi3009278 (University of Wisconsin, 2012).

Target: Lysine-specific demethylase 5A (Homo sapiens, UniProt P29375)
Test: Fluorescence Polarization Binding Assay

Sequence of Lysine-specific demethylase 5A (P29375 whole entry): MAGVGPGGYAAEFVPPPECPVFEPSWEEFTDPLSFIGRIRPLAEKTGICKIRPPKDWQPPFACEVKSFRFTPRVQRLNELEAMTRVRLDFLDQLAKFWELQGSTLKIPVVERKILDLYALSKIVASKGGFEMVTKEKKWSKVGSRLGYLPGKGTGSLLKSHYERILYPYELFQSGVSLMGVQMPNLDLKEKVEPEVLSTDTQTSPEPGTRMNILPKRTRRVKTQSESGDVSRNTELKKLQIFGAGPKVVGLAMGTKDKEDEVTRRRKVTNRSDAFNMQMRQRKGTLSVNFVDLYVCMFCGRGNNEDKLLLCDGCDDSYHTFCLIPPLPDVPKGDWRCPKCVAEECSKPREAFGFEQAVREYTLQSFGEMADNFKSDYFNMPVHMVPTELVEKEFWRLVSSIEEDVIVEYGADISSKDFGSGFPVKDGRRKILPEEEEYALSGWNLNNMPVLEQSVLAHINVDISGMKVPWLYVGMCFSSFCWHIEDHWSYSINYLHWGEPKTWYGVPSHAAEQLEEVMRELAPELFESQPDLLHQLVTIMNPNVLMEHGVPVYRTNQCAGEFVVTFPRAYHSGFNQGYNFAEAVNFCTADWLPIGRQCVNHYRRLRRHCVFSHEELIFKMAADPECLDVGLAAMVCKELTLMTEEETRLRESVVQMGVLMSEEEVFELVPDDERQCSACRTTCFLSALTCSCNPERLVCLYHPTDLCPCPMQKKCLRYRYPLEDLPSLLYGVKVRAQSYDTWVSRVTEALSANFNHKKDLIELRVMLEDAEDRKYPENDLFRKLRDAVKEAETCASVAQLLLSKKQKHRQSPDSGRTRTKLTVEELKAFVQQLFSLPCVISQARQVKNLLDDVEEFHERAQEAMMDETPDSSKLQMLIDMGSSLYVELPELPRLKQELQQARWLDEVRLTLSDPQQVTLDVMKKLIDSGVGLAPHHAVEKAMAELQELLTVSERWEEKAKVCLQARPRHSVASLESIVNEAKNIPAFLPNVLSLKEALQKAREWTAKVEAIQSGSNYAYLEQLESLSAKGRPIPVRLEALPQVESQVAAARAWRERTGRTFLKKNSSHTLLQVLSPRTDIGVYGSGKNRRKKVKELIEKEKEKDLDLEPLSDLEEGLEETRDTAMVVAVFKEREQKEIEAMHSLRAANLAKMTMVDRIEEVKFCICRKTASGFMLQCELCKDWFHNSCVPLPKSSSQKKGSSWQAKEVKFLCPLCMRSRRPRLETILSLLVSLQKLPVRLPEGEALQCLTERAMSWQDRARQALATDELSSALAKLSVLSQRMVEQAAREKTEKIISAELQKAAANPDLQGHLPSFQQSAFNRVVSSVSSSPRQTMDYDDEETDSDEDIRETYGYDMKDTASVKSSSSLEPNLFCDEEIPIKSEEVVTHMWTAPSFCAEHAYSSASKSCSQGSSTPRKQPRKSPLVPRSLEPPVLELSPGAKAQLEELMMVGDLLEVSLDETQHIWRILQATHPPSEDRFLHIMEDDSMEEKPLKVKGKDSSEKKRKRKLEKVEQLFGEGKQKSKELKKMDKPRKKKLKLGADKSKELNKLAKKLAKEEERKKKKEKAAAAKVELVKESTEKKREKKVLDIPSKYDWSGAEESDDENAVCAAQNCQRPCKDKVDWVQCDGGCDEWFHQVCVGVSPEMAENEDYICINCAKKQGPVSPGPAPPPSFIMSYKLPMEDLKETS

CCCCc1oc2ccccc2c1C(=O)c1cc(I)c(OCCN)c(I)c1 [Di-N-desethylaminodarone]
IC50: 26 µM

CCCCc1oc2ccccc2c1C(=O)c1cc(I)c(OCC[N+](C)(C)C)c(I)c1 [WAG-003]
IC50: 30 µM
